These are literature values, as cited in paper PMC4128962 (Journal of controlled release : official journal of the …, 2013).

As for Hyaluronic acid [HA], the pKa result was “about 3.0”.
